Test results as given in patent publication US20230381291A1, “TUMOR-ASSOCIATED PEPTIDES AND USES THEREOF” (HUMANITAS MIRASOLE S.P.A., priority 2020, published 2023).
Where a SMILES comes first, the peptide text is derived from it. The star is where a group is joined. Cbz = O=C(OCc1ccccc1)*

Tests used:
Assay type in all cases: cell-based, human
[1] = tested on: Salmonella-infected 624-38 melanoma cells; assay: IFN-gamma release by CTL-Vax on Thp1 loaded with conditioned supernatant; settings: supernatant of inhibitor-treated Salmonella-infected 624-38 loaded on Thp1, ratio 1:1, 72 hours
Description: (§1) In order to elucidate the Salmonella mechanism of action, the present inventors employed several inhibitors in their in vitro experiments, including: Heptanol (Sigma, 1 mM), hemichannel blocker; proteasome inhibitors: MG132 (Sigma, 20 μM) and Epoxomycin (Sigma, 500 nM); UPR-inhibitor 4μ8c (10 μM).
(§2) Human acute monocytic leukemia Thp1 cell line was loaded either with antigens at different concentration (20 uM-1.25 uM) or with conditioned medium and used to stimulate CTL-Vax (ratio 1:1). Cells supernatant was collected after 72 hours and IFN-gamma production was measured by ELISA (R&D). IFN-gamma released by CTLs co-cultured with unloaded Thp1 (spontaneous IFN-gamma release) was subtracted from IFN measured upon Ag-stimulation. Specificity of the activation was further assessed using an HLA-I pan blocker as control (10 ug/ml, Clone W6/32).

[2] = tested on: Salmonella-infected 624-38 melanoma cells; assay: HLA-A*02:01-peptide binding assay on T2 cells (peptide release into supernatant); settings: 624-38 cells treated with inhibitor; 4μ8c 10 μM, MG132 20 μM, Epoxomycin 500 nM
Description: as §1
Single bacterial colonies were grown overnight and restarted the next day to reach an absorbance at 600 nm of 0.6 corresponding to 0.6×10^9 colony-forming units (CFUs)/ml. Murine and human melanoma cells were incubated with bacteria for 90 minutes, at a cell-to-bacteria ratio of 1:50, in the appropriate medium added with L-Glutamine without antibiotics. Cells were washed with medium and incubated in medium supplemented with gentamicin ([…]) for 18 hours to kill extracellular bacteria. At the end of the incubation cells were harvested and then lysed for protein analysis while supernatant was collected and filtered through 0.22 μm filter eliminate potentially still alive bacteria.
To assess peptides enrichment in the supernatant from tumor cell cultures following Salmonella treatment, T2 cells were incubated overnight at 37° C. at 2×10^5 cells/well in serum-free RPMI medium either with 100 μL of supernatant or with Mart-126-35 peptide (1 μM and 10 μM) as a positive control. […]

[3] = tested on: CTL-Vax; assay: IFN-gamma assay for peptide recognition by CTLs (peptide-loaded Thp1, ELISA); settings: synthesized peptides loaded on Thp1 at 20 μM-1.25 μM, ratio 1:1, 72 hours
Description: as §2

| Compound | CTL-Vax activation upon supernatant stimulation (IFN-gamma release) [1] | peptide release prompted by Salmonella infection (HLA-A*02:01 MFI on T2 cells) [2] | IFN-gamma production by CTL-VAX [3] |
| --- | --- | --- | --- |
| CC(C)C[C@@H](C=O)NC(=O)[C@H](CC(C)C)NC(=O)[C@H](CC(C)C)NC(=O)OCc1ccccc1 [MG132] (Cbz-Leu-Leu-Leu-aldehyde) | affected | affected |  |
| Cc1cc(=O)oc2c(C=O)c(O)ccc12 [4μ8c] | lower activation | significantly impaired peptide release |  |
| TMA747-44: candidate peptide from melanoma secretome that did not induce IFN-gamma production by CTL-VAX (AAGKGPLATGGIKKSGKK) |  |  | all except TMA747-44 (SEQ ID NO. 5) were able to induce IFN-gamma production |
